Values quoted from earlier work as cited in patent US6989159B2 (JDS Pharmaceuticals, LLC, priority 2000, dated 2006).

O=C([O-])[O-].[Li+].[Li+] [Lithium carbonate]
eliminated through urine (in vivo): More than 95% | reabsorbed in the proximal convoluted tubule (in vivo): 80% | time to complete absorption in the gastrointestinal tract (in vivo): about 8 hours | concentration in the liquor compared with the plasmatic one (steady state): below 50% | plasma half-life at the steady state (steady state): 20 to 24 h
